Values joined by “and” are separate entries in the source; they are usually repeats but may differ in a detail not shown here. Equal values may be shown once.
Key:
Format in all cases: cell-based, human
[1] = tested on: MDA-MB-231 cells expressing NQO1 (231+); test: Long term survival assay; conditions: 231-NQ+ cells
Description: Cells were cultured and treated as described above.
Data were expressed as relative survival (treated/control×100%).

Calu-3/NSCLC = test: β-lapachone lethality in NQO1 genotyped cancer cells
Description: (§1) Cell lines, mostly from a 5-panel nonsmall cell lung cancer panel from the UT Southwestern SPORE, were assessed for NQO1 polymorphism status and then monitored for NQO1 enzyme assays using β-lapachone or the standard menadione substrates. Cell line responses to β-lapachone exposures (μM, 2 h) were then assessed and lethal doses causing 50% lethality with or without dicoumarol (40 μM) co-treatments were recorded. NQO1*2/*2 and *3/*3 polymorphisms were detected from NQO1 *1/*1 wild-type sequences by PCR-RFLP. Genomic DNA was extracted from the cells using Qiagen spin columns. Using previously described oligonucleotide primers, PCR products underwent gel electrophoresis. Final genotyping was determined based on the size and pattern of separated bands diagnostic for *1/*1 (wild-type), or polymorphic *2/*2 or *3/*3 NQO1 polymorphisms.

H1648 = test: as above
Description: as §1

H1993 = test: as above
Description: as §1

H2009/NSCLC = test: as above
Description: as §1

H2073 = test: as above
Description: as §1

H292 = test: as above
Description: as §1

H322 = test: as above
Description: as §1

HCC1171/NSCLC = test: as above
Description: as §1

HCC2935 = test: as above
Description: as §1

HCC366/NSCLC = test: as above
Description: as §1

HCC44 = test: as above
Description: as §1

MDA-MB-231/Breast = test: as above
Description: as §1

MDA-MB-468/Breast = test: as above
Description: as §1

T47D/BreastCancer = test: as above
Description: as §1

H2882/NSCLC = test: as above
Description: (§2) LD50 responses were plotted as a function of NQO1 enzymatic levels. The notations, *1/*1 and *2/*2 represent the NQO1 status of each cell line as homozygous wild type (*1/*1) or homozygous polymorphic (*2/*2) genotypes. […] In (b), Kaplan-Meier survival curve of mice bearing orthotopic lung tumors implanted with *1/*1 A549 cells. Mice were treated intravenously (5 doses every other day) with β-lap-HPβ-CD or vehicle alone (HPβ-CD).
as §1, with “Cell line responses to β-lapachone exposures (μM, 2 h) were then assessed and lethal doses causing 50% lethality with or without dicoumarol (40 μM) co-treatments were recorded.” left out

H596/NSCLC = test: as above; conditions: NQO1 genotype *2/*2, 2 h exposure
Description: as §2
as §1, with “Cell line responses to β-lapachone exposures (μM, 2 h) were then assessed and lethal doses causing 50% lethality with or without dicoumarol (40 μM) co-treatments were recorded.” left out

[2] = tested on: wild-type *1/*1 non-small cell lung cancer (NSCLC) cell lines; test: LD50 responses of NSCLC cell lines treated with β-Lap; conditions: all of the wild-type *1/*1 NSCLC cells, 2 h treatment, 7 days later
Description: FIG. 16 depicts NQO1 levels predict response to NQO1 bioactivatable therapies. In (a) LD50 responses of non-small cell lung cancer (NSCLC) cell lines treated with β-Lap for 2 h and harvester 7 days later. LD50 responses were plotted as a function of NQO1 enzymatic levels. The notations, *1/*1 and *2/*2 represent the NQO1 status of each cell line as homozygous wild type (*1/*1) or homozygous polymorphic (*2/*2) genotypes. Note that all heterozygote cells containing one wild-type allele (*1) are wild-type, phenotypically, for NQO1 expression, such that only homozygous *2/*2 or 3/3 are considered non-responsive to NQO1 bioactivatable drugs. Note the high resistance of H596 and H2862 cell lines to β-lapachone compared to all of the wild-type *1/*1 cells with LD50 values less than 5 μM. Note also that *3/*3 SNPs in NQO1 are far more rare than *2/*2 single point mutations in NQO1. In (b), Kaplan-Meier survival curve of mice bearing orthotopic lung tumors implanted with *1/*1 A549 cells. Mice were treated intravenously (5 doses every other day) with β-lap-HPβ-CD or vehicle alone (HPβ-CD). Similar studies with *2/*2 or *3/*3 tumors were performed and these tumors were non-responsive to β-lapachone or other NQO1 bioactivatable drug therapies.

[3] = *3/*3, 2 h, + dicoumarol (40 μM)
[4] = NQO1 genotype *3/*3, 2 h exposure
[5] = *2/*2, 2 h, + dicoumarol (40 μM)
[6] = NQO1 genotype *2/*2, 2 h exposure

How did the Lethal dose ([1]; 2 h) turn out when `CC1(C)CCC2=C(O1)c1ccccc1C(=O)C2=O` [β-Lap, 3,4-dihydro-2,2-dimethyl-2H-naphtho[1,2-b]pyran-5,6-dione] was run?
Its Lethal dose is > 2 µM.

What about the Sublethal dose ([1]; 2 h) of the same compound?
Its Sublethal dose is 1 µM.

What about the LD70 dose ([1]; 2 h treatment) of the same compound?
The LD70 dose was ~2 µM.

What about the “LD50 + DIC” value (Calu-3/NSCLC; [3]) of the same compound?
The value was 3 µM.

What about the “β-Lap Lethality LD50” value (Calu-3/NSCLC; [4]) of the same compound?
The value was 2.4 µM.

What about the “LD50 + DIC” value (H1648; H1648, *1/*1, 2 h, + dicoumarol (40 μM)) of the same compound?
The value was >20 µM.

What about the “β-Lap Lethality LD50” value (H1648; H1648, NQO1 genotype *1/*1, 2 h exposure) of the same compound?
The value was 4.1 µM.

And the “LD50 + DIC” value (H1993; H1993, *1/*1, 2 h, + dicoumarol (40 μM))?
The value was >10 µM.

And the “β-Lap Lethality LD50” value (H1993; H1993, NQO1 genotype *1/*1, 2 h exposure)?
Its value is 1.8 µM.

What about the “LD50 + DIC” value (H2009/NSCLC; [3]) of the same compound?
Its value is 5.4 µM.

What about the “β-Lap Lethality LD50” value (H2009/NSCLC; [4]) of the same compound?
Its value is 4.3 µM.

What about the “LD50 + DIC” value (H2073; H2073, *1/*1, 2 h, + dicoumarol (40 μM)) of the same compound?
Its value is >10 µM.

What about the “β-Lap Lethality LD50” value (H2073; H2073, NQO1 genotype *1/*1, 2 h exposure) of the same compound?
The value was 1.8 µM.

And the “LD50 + DIC” value (H292; H292, *1/*2, 2 h, + dicoumarol (40 μM))?
The value was >10 µM.

And the “β-Lap Lethality LD50” value (H292; H292, NQO1 genotype *1/*2, 2 h exposure)?
The value was 1.8 µM.

What about the “LD50 + DIC” value (H322; H322, *1/*1, 2 h, + dicoumarol (40 μM)) of the same compound?
Its value is >20 µM.

What about the “β-Lap Lethality LD50” value (H322; H322, NQO1 genotype *1/*1, 2 h exposure) of the same compound?
The value was 5.7 µM.

What about the “LD50 + DIC” value (HCC1171/NSCLC; [3]) of the same compound?
Its value is 2 µM.

And the “β-Lap Lethality LD50” value (HCC1171/NSCLC; [4])?
Its value is 3 µM.

What about the “LD50 + DIC” value (HCC2935; HCC2935, *1/*3, 2 h, + dicoumarol (40 μM)) of the same compound?
The value was >10 µM.

And the “β-Lap Lethality LD50” value (HCC2935; HCC2935, NQO1 genotype *1/*3, 2 h exposure)?
Its value is 1.0 µM.

What about the “LD50 + DIC” value (HCC366/NSCLC; [5]) of the same compound?
The value was >10 µM.

And the “β-Lap Lethality LD50” value (HCC366/NSCLC; [6])?
The value was >10 µM.

And the “LD50 + DIC” value (HCC44; HCC44, *1/*2, 2 h, + dicoumarol (40 μM))?
Its value is >10 µM.

And the “β-Lap Lethality LD50” value (HCC44; HCC44, NQO1 genotype *1/*2, 2 h exposure)?
The value was 2.8 µM.

And the “LD50 + DIC” value (MDA-MB-231/Breast; [5])?
Its value is >10 µM.

What about the “β-Lap Lethality LD50” value (MDA-MB-231/Breast; [6]) of the same compound?
The value was >10 µM.

What about the “LD50 + DIC” value (MDA-MB-468/Breast; [5]) of the same compound?
Its value is >10 µM.

And the “β-Lap Lethality LD50” value (MDA-MB-468/Breast; [6])?
The value was >10 µM.

And the “LD50 + DIC” value (T47D/BreastCancer; [3])?
Its value is 4 µM.

And the “β-Lap Lethality LD50” value (T47D/BreastCancer; [4])?
Its value is 4 µM.

And the “LD50 + DIC” value (H2882/NSCLC; [5])?
Its value is >40 µM.

And the “β-Lap Lethality LD50” value (H2882/NSCLC; [6])?
The value was >20 µM.

And the “β-Lap Lethality LD50” value (H596/NSCLC)?
The value was >20 µM and >10 µM.

And the LD50 [2]?
The LD50 was “less than 5 μM”.
